Laboratory results: US20230048512A1, “COCRYSTALS OF PTEROSTILBENE AND COMPOSITIONS COMPRISING THEM” (CENTER FOR INTELLIGENT RESEARCH IN CRYSTAL ENGINEERING, S.L., priority 2019, published 2023)
“And” between values parts separate entries of the source, which are not always exact repeats. Equal entries are not always repeated.

Columns and labels:
[1] = Dissolution rate of tablets of the solid forms in FaSSIF v2 (small-scale dissolution assay, UV quantification, Noyes-Whitney fit); type: physicochemical; settings: FaSSIF v2 (pH 6.5), 25° C., 120 minutes, 3 mm tablet
Protocol: 1. Molar Extinction Coefficient (MEC) determination in FaSSIF v2 medium
Molar extinction coefficients of pterostilbene and of each coformer were determined by UV-metric titration using a GlpKaTM titrator (Sirius Analytical Instruments, UK). Briefly, a 10 mM stock solution of sample was prepared in DMSO. […] of sample stock solution and 0.25 mL of a 15 mM potassium phosphate buffer were added to 10 mL of a 0.15 M KCI solution, which in turn contained 17.9 mg of FaSSIF v2 powder. The pH of the sample solution was adjusted to 2 with 0.5 M HCI before starting the titration, and then the titration was done using 0.5 M KOH up to pH 12. The UV absorption spectra (between 250 and 450 nm) of the solution were recorded at each titrant addition by a fiber optic dip-probe. The collected data were refined through the RefinamentPro software, and the pKa values and Molar Extinction Coefficients obtained by Target Factor Analysis.
2. Dissolution Rate experiments • Tablet production: tablets of 3 mm diameter were prepared using a manual hydraulic tablet press (Applied Measurements Ltd, UK). The applied pressure was 100 Kg for 2 min. From 10 to 15 mg of each solid form, pterostilbene or cocrystal, were weighted. The total exposed surface area was 0.5 cm^2. • Medium: FaSSIF v2 (pH 6.5), with corresponding amount of phosphoric (28.4 mM) acid instead of maleic acid. • Dissolution tests were performed with a small-scale dissolution assay installed in a GlpKaTM titrator (Sirius Analytical Instruments, UK). • Dissolution time and temperature: 120 minutes and 25° C. • Procedure: 15 mL of FaSSIF v2 was added into the sample vial containing the tablet. Spectra collection started immediately after. Spectra were recorded every 30 seconds between 250 and 450 nm through a Sirius D-PAS spectrometer with a bifurcated optic fibre dip probe (Hellma Analytics). The medium was stirred at a constant rate.
The concentration of pterostilbene in solution at each time point is determined from the spectroscopic data by applying the Beer-Lambert law, using previously determined molar extinction coefficients of pure pterostilbene. Spectrum regions where signal is saturated (A>1.5) or presenting medium interferences were discarded. Then, the concentration data were converted into absolute sample quantities, and used to generate the graphs showing the sample quantity vs. time.
4. Determination of the dissolution rate
Dissolution rate is obtained through the fit of the first order Noyes-Whitney exponential equation to the data: […]
In this equation, [X]t is the weight in grams of compound in solution at the experiment time (min); S is the extrapolated solubility (g) of pterostilbene; kd is the rate constant for dissolution (min^−1); and to (min) is a term allowing for a temporal offset. Results are calculated using a refinement process in which S, kd and t0 are varied in order to minimize the root mean square deviation between the modelled concentrations and the measured concentrations. The dissolution rate (g min^−1) is given by the product kdS (T. Gravestock et al., 2011).

[2] = Pharmacokinetics of pterostilbene in rat plasma after single oral administration; type: in vivo, Male Sprague-Dawley rats; settings: for Plasma concentration of pterostilbene, Mean (arithmetic) / Plasma concentration of pterostilbene, individual animals 1-5: 20 mg/kg P56-VIII (13.5 mg/kg as pterostilbene) single oral
Protocol: In-life phase • Animals: Male Sprague-Dawley rats (weight: 417.9-458.6 g) • Administration: Oral (single dose) • Dose: 20 mg/kg P56 (pterostilbene, free base) 20 mg/kg P56-VIII (cocrystal of pterostilbene and picolinic acid; 13.5 mg/kg as pterostilbene free base) • Formulation: Suspension (0.5% carboxymethylceluulose, CMC) • Adm. volume: 10 ml/kg • Fed/fasted state: Fasted (at least 8 hours prior dosing) • Sampling: Six blood samples/animal (1, 2, 4, 6, 8 and 24 hours post-adm.) • Plasma samples: Plasma samples using K3-EDTA as anticoagulant.
Samples were immediately frozen at −80° C. until their analysis
Pharmacokinetic analysis was performed by non-compartmental pharmacokinetic analysis using Kinetica v5 software (Alfasoft Limited, Luton, UK). Descriptive statistics was performed using Microsoft Excel spreadsheet 2007 (Microsoft Inc, Redmond, US). Plasma bioanalysis was made by LC-MS/MS.
Concentration values below the lower limit of quantification (BLQ) were set to zero, whereas missing concentration values were not considered for statistical and pharmacokinetic evaluations. All computations used the nominal sampling times, nominal doses and concentrations levels were expressed as free base. The numerical data presented below were computer generated. Because of rounding, recalculation of derived values from individual data presented herein below could, in some instances, yield minor variation.
The area under the plasma concentration-time curve from 0 to t (AUC0-t) was determined by using the trapezoidal rule. […] The terminal half-life was determined according to the following rules: (a) time interval equal to at least 1.5 x t1/2, (b) regression analysis (straight line on the log-transformed scale) contained data from at least 3 different time points in the terminal phase and as many data points as possible (always including the last quantifiable concentration but excluding the Cmax), and (c) the coefficient of determination (r^2) was ≥0.85. If at least one of these three conditions was not fulfilled, the terminal half-life and the parameters depending on t1/2 were listed but flagged as not reliably calculated. If the percentage of extrapolated AUC was more than 20%, the individual AUCinf result were listed but flagged as not reliably calculated. Flagged parameters were not included in descriptive statistics and statistical testing procedures.

[3] = 20 mg/kg P56-VIII (13.5 mg as pterostilbene) single oral, fasted male SD rats
[4] = 20 mg/kg cocrystal (13.5 mg/kg as pterostilbene) vs 20 mg/kg P56, single oral, rats

COc1cc(/C=C/c2ccc(O)cc2)cc(OC)c1.COc1cc(/C=C/c2ccc(O)cc2)cc(OC)c1.NCCN [Pterostilbene:ethylendiamine cocrystal, pterostilbene:ethylendiamine cocrystal (2:1)]
dissolution rate [1]: 176.1 ± 12.6 nmol/min

COc1cc(/C=C/c2ccc(O)cc2)cc(OC)c1.ClCCl.Cn1c(=O)c2[nH]cnc2n(C)c1=O [Pterostilbene:theophylline cocrystal, cocrystal solvate of pterostilbene:theophylline: dichloromethane (1:1:1)]
dissolution rate [1]: 33.5 ± 6.7 nmol/min

COc1cc(C=Cc2ccc(O)cc2)cc(OC)c1.COc1cc(C=Cc2ccc(O)cc2)cc(OC)c1.NCCN.O.O [pterostilbene:ethylendiamine:H2O cocrystal hydrate (2:1:2)]
dissolution rate [1]: 230.4 ± 26.59 nmol/min

COc1cc(/C=C/c2ccc(O)cc2)cc(OC)c1.COc1cc(/C=C/c2ccc(O)cc2)cc(OC)c1.Cc1cnc(C)c(C)n1 [cocrystal of pterostilbene:2,3,5-trimethylpirazine (2:1)]
dissolution rate [1]: 52.0 ± 5.8 nmol/min

COc1cc(/C=C/c2ccc(O)cc2)cc(OC)c1 [Pterostilbene (Form VI), Form VI of pterostilbene]
dissolution rate [1]: 7.4 ± 1.8 nmol/min

COc1cc(/C=C/c2ccc(O)cc2)cc(OC)c1.Cn1c(=O)c2c(ncn2C)n(C)c1=O [Pterostilbene:caffeine cocrystal, reference compound]
dissolution rate [1]: 45.4 ± 9.2 nmol/min

COc1cc(/C=C/c2ccc(O)cc2)cc(OC)c1.COc1cc(/C=C/c2ccc(O)cc2)cc(OC)c1.O=C(O)c1ccccn1 [cocrystal of pterostilbene:picolinic acid (2:1)]
dissolution rate [1]: 351.3 ± 18.9 nmol/min

COc1cc(/C=C/c2ccc(O)cc2)cc(OC)c1.O=C(O)c1ccccn1 [cocrystal of pterostilbene:picolinic acid (1:1)]
AUC0-t, Mean [2, 3]: 4699 ng·h/mL
AUC0-t, individual animals 1-5 [2, 3]: 4384 ng·h/mL and 3776 ng·h/mL and 4059 ng·h/mL and 9824 ng·h/mL and 1452 ng·h/mL
AUCinf, Mean [2, 3]: 4772 ng·h/mL
AUCinf, individual animals 1-5 [2, 3]: 4422 ng·h/mL and 3805 ng·h/mL and 4178 ng·h/mL and 9855 ng·h/mL and 1602 ng·h/mL
Cmax, Mean [2, 3]: 567.8 ng/mL
Cmax, individual animals 1-5 [2, 3]: 695.2 ng/mL and 337.4 ng/mL and 513.3 ng/mL and 991.8 ng/mL and 301.1 ng/mL
t1/2 (terminal elimination half-life), Mean [2, 3]: 3.3 h
t1/2 (terminal elimination half-life), individual animals 1-5 [2, 3]: 3.7 h and 3.2 h and 5.1 h and 2.8 h and 1.9 h
tmax, Median [2, 3]: 2 h
tmax, individual animals 1-5 [2, 3]: 1 h and 6 h and 4 h and 2 h
Plasma concentration of pterostilbene, Mean (arithmetic) ([2]; fasted male SD rats, 1 h): 504.7 ng/mL
Plasma concentration of pterostilbene, individual animals 1-5 ([2]; fasted male SD rats, 1 h): 513.3 ng/mL and 980.0 ng/mL and 189.8 ng/mL and 695.2 ng/mL and 145.5 ng/mL
Plasma concentration of pterostilbene, Mean (arithmetic) ([2]; fasted male SD rats, 2 h): 514.3 ng/mL
Plasma concentration of pterostilbene, individual animals 1-5 ([2]; fasted male SD rats, 2 h): 462.8 ng/mL and 952.8 ng/mL and 301.1 ng/mL and 587.9 ng/mL and 266.9 ng/mL
Plasma concentration of pterostilbene, Mean (arithmetic) ([2]; fasted male SD rats, 4 h): 451.7 ng/mL
Plasma concentration of pterostilbene, individual animals 1-5 ([2]; fasted male SD rats, 4 h): 262.6 ng/mL and 991.8 ng/mL and 224.7 ng/mL and 538.5 ng/mL and 240.8 ng/mL
Plasma concentration of pterostilbene, Mean (arithmetic) ([2]; fasted male SD rats, 6 h): 305.6 ng/mL
Plasma concentration of pterostilbene, individual animals 1-5 ([2]; fasted male SD rats, 6 h): 150.6 ng/mL and 663.7 ng/mL and 153.8 ng/mL and 222.5 ng/mL and 337.4 ng/mL
Plasma concentration of pterostilbene, Mean (arithmetic) ([2]; fasted male SD rats, 8 h): 214.8 ng/mL
Plasma concentration of pterostilbene, individual animals 1-5 ([2]; fasted male SD rats, 8 h): 210.5 ng/mL and 449.2 ng/mL and 53.5 ng/mL and 136.4 ng/mL and 224.6 ng/mL
Plasma concentration of pterostilbene, Mean (arithmetic) ([2]; fasted male SD rats, 24 h): 7.54 ng/mL
Plasma concentration of pterostilbene, individual animals 1-5 ([2]; fasted male SD rats, 24 h, BLQ = <5 ng/ml): 16.4 ng/ml and 7.67 ng/ml and BLQ and 7.16 ng/ml and 6.50 ng/ml
increase in AUCinf compared to the P56 formulation [2, 4]: about 10 fold
increase in Cmax compared to the P56 formulation [2, 4]: around 6 fold
dissolution rate [1]: 427.8 ± 29.5 nmol/min
